Columns and labels:
[1] = tested on: effets β1 (augmentation de la force contractile du myocarde) de l'isoprénaline; test: β-blocking activity: inhibition of the β1 effects of intravenous isoprenaline in anaesthetised dogs; type: in vivo, chiens; settings: dog
Procedure: (§1) Des chiens tout-venants mâles ou femelles sont anesthésiés au mébubarbital sodique (30 mg/kg I.V.) et ventilés artificiellement par une pompe Pesty RPP. Ils sont supplémentés en oxygène.
(§2) On mesure: • - la pression carotidienne systolique et diastolique • - la force contractile du myocarde.
(§3) Les signaux sont amplifiés et enregistrés sur Dynograph Beckman.
(§4) L'activité β bloquante adrénergique a été étudiée vis-à-vis des effets β1 (augmentation de la force contractile du myocarde) et des effets P2 (diminution de la pression artérielle disstolique) de l'isoprénaline administrée par voie intraveineuse.
(§5) On calcule le pourcentsge d'inhibition des effets β1 et des effets β2 de l'isoprénaline en fonction des doses (mg.kg I.V.) des différents exemples.
(§6) Les exemples sont injectés dans le veine saphène aux doses (exprimées en base) de: 0,0003 0,001 0,003 0,01 0,1 1,0 et 4,0 ou 8,0 mg.kg-1.

[2] = tested on: effets β2 (diminution de la pression artérielle diastolique) de l'isoprénaline; test: β-blocking activity: inhibition of the β2 effects of intravenous isoprenaline in anaesthetised dogs; type: in vivo, chiens; settings: dog
Procedure: as §1, §2, §3, §4, §5, §6

[3] = tested on: rat génétiquement hypertendu: Rat OKAMOTO; test: Antihypertensive activity in spontaneously hypertensive rats (tail-cuff systolic pressure and heart rate after oral dosing); type: in vivo; settings: 128 mg.kg^-1 V.O
Procedure: Des rats mâles âgés de 13 à 21 semaines présentant une hypertension spontanée génétiquement transmissible (souche OKAMOTO provenance IFFA CREDO) sont placés dans une enceinte thermostatée à 38°C. Les rats sont laissés en situation libre. La pression artérielle est mesurée par un sphygmomanomètre Narco Biosystem. Un manchon est placé à la base de la queue et un détecteur enregistre le pouls en aval du manchon. Celui-ci est gonflé jusqu'à suppression du pouls il est ensuite progressivement dégonflé. La pression mesurée à la reprise des battements cardiaques est la pression artérielle systolique. On calcule la fréquence cardiaque à partir de l'enregistrement du pouls artériel. Les produits à étudiar sont mis en suspension el administrés par voie orale sous un volume de 1 ml pour 100 g de poids corporel. Les mesures sont répétées à intervalles réguliers.
Les valeurs moyennes avant traitement pour les différents lots de rats sont pour la pression artérielle systolique de 190 à 200 mmHg et pour la fréquence cardiaque de 305 à 350 battements par minute.
Le tableau III ci-après donne la moyenne des variations de la pression systolique (mmHg) de la fréquence cardisque (battements/minute) et les écarts type à la moyenne obtenus 1 heure 3 heures et 5 heures après administration orale.

[4] = 1.0 mg.kg^-1 voie intraveineuse
[5] = 4.0 mg.kg^-1 voie intraveineuse

## CC(C)NCC(O)COc1ccc(NC(=O)Cc2cccs2)cc1C#N (stereo not drawn) [exemple 8, 1-[2-cyano 4-(2-thiénylacétamido)phénoxy] 3-isopropylamino 2-propanol]
[1]; 0.001 mg.kg^-1 voie intraveineuse
  Pourcentages d'inhibition des effets β1 de l'Isoprénaline: 5%
[1]; 0.003 mg.kg^-1 voie intraveineuse
  Pourcentages d'inhibition des effets β1 de l'Isoprénaline: 12%
[1]; 0.01 mg.kg^-1 voie intraveineuse
  Pourcentages d'inhibition des effets β1 de l'Isoprénaline: 38%
[1]; 0.1 mg.kg^-1 voie intraveineuse
  Pourcentages d'inhibition des effets β1 de l'Isoprénaline: 64%
[1]; [4]
  Pourcentages d'inhibition des effets β1 de l'Isoprénaline: 86%
[1]; [5]
  Pourcentages d'inhibition des effets β1 de l'Isoprénaline: 100%
[1]; Canis lupus familiaris, iv, 0,001 mg/kg I.V., inhibition given with negative sign, read-out: % d'inhibition des effets β1^(+) de l'Isoprénaline
  inhibition at 0.001 mg/kg: -5%
[1]; Canis lupus familiaris, iv, 0,003 mg/kg I.V., inhibition given with negative sign, read-out: % d'inhibition des effets β1^(+) de l'Isoprénaline
  inhibition at 0.003 mg/kg: -12%
[1]; Canis lupus familiaris, iv, 0,010 mg/kg I.V., inhibition given with negative sign, read-out: % d'inhibition des effets β1^(+) de l'Isoprénaline
  inhibition at 0.01 mg/kg: -38%
[1]; Canis lupus familiaris, iv, 0,100 mg/kg I.V., inhibition given with negative sign, read-out: % d'inhibition des effets β1^(+) de l'Isoprénaline
  inhibition at 0.1 mg/kg: -64%
[2]; [4]
  Pourcentages d'inhibition des effets β2 de l'Isoprénaline: 16%
[2]; [5]
  Pourcentages d'inhibition des effets β2 de l'Isoprénaline: 100%
[2]; Canis lupus familiaris, iv, 0,001 mg/kg I.V., inhibition given with negative sign, read-out: % d'inhibition des effets β2^⊕ de l'Isoprénaline
  inhibition at 0.001 mg/kg: 0%
[2]; Canis lupus familiaris, iv, 0,003 mg/kg I.V., inhibition given with negative sign, read-out: % d'inhibition des effets β2^⊕ de l'Isoprénaline
  inhibition at 0.003 mg/kg: 0%
[2]; Canis lupus familiaris, iv, 0,010 mg/kg I.V., inhibition given with negative sign, read-out: % d'inhibition des effets β2^⊕ de l'Isoprénaline
  inhibition at 0.01 mg/kg: 0%
[2]; Canis lupus familiaris, iv, 0,100 mg/kg I.V., inhibition given with negative sign, read-out: % d'inhibition des effets β2^⊕ de l'Isoprénaline
  inhibition at 0.1 mg/kg: 0%
[3]; T+1 heure
  Fréquence cardiaque Δ (battements/min) T+1 heure m (sm): +31 (11) battements/min
  Pression systolique Δ (mmHg) T+1 heure m (sm): -39 (8) mmHg
[3]; T+1 heure, mean
  Pression systolique Δ (mmHg) T+1 heure m: -39 mmHg
[3]; T+3 heures
  Fréquence cardiaque Δ (battements/min) T+3 heures m (sm): +36 (7) battements/min
  Pression systolique Δ (mmHg) T+3 heures m (sm): -31 (9) mmHg
[3]; T+3 heures, mean
  Fréquence cardiaque Δ (battements/minute) T + 3 heures m: +36 battements/minute
  Pression systolique Δ (mmHg) T+3 heures m: -31 mmHg
[3]; T+5 heures
  Fréquence cardiaque Δ (battements/min) T+5 heures m (sm): +12 (13) battements/min
  Pression systolique Δ (mmHg) T+5 heures m (sm): -25 (5) mmHg
[3]; T+5 heures, mean
  Fréquence cardiaque Δ (battements/minute) T + 5 heures m: +12 battements/minute
  Pression systolique Δ (mmHg) T+5 heures m: -25 mmHg

Source: patent publication EP0071535B1, “(4-(2 and/or 3-Thienylacetamido)-phenoxy)-hydroxyaminopropanes, their preparation, their therapeutic use and intermediates” (CARPIBEM (CENTRE D'ACTIVITE ET DE RECHERCHE PHARMACEUTIQUE …, priority 1981, dated 1983)
